In PubChem BioAssay (NCI):
Several values for one entry are separate records, joined by “and”; a condition that tells them apart may be missing. Equal entries are not always repeated.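 All cell lines were grown in 96-well plates and treated with compound for 48 hours. GI50 marks 50% less growth. TGI: concentration producing complete growth inhibition.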

What was measured:
Assay in all cases: NCI tumour cell line growth inhibition, 48 h
[1] = test system: 786-0 renal
[2] = test system: A498 renal
[3] = test system: A549 NSCLC
[4] = test system: ACHN renal
[5] = test system: BT-549 breast
[6] = test system: CAKI-1 renal
[7] = test system: CCRF-CEM leukemia
[8] = test system: COLO 205 colon
[9] = test system: DU-145 prostate
[10] = test system: EKVX NSCLC
[11] = test system: HCC-2998 colon
[12] = test system: HCT-116 colon
[13] = test system: HCT-15 colon
[14] = test system: HL-60(TB) leukemia
[15] = test system: HOP-62 NSCLC
[16] = test system: HOP-92 NSCLC
[17] = test system: HS 578T breast
[18] = test system: HT29 colon
[19] = test system: IGROV1 ovarian
[20] = test system: K-562 leukemia
[21] = test system: KM12 colon
[22] = test system: LOX IMVI melanoma
[23] = test system: M14 melanoma
[24] = test system: MALME-3M melanoma
[25] = test system: MCF7 breast
[26] = test system: MDA-MB-231 breast
[27] = test system: MDA-MB-435
[28] = test system: MOLT-4 leukemia
[29] = test system: NCI-H226 lung
[30] = test system: NCI-H23 lung
[31] = test system: NCI-H460 lung
[32] = test system: NCI-H522 lung
[33] = test system: NCI/ADR-RES ovarian
[34] = test system: OVCAR-3 ovarian
[35] = test system: OVCAR-4 ovarian
[36] = test system: OVCAR-5 ovarian
[37] = test system: OVCAR-8 ovarian
[38] = test system: PC-3 prostate
[39] = test system: RPMI-8226 leukemia
[40] = test system: RXF 393 renal
[41] = test system: SF-268 CNS
[42] = test system: SF-295 CNS
[43] = test system: SF-539 CNS
[44] = test system: SK-MEL-2 melanoma
[45] = test system: SK-MEL-28 melanoma
[46] = test system: SK-MEL-5 melanoma
[47] = test system: SK-OV-3 ovarian
[48] = test system: SN12C renal
[49] = test system: SNB-19 CNS
[50] = test system: SNB-75 CNS
[51] = test system: SR leukemia
[52] = test system: SW-620 colon
[53] = test system: T-47D breast
[54] = test system: TK-10 renal
[55] = test system: U251 CNS
[56] = test system: UACC-257 melanoma
[57] = test system: UACC-62 melanoma
[58] = test system: UO-31 renal

c1ccc2cc(C[n+]3ccn(CCCCCCCCCCCCn4cc[n+](Cc5ccc6ccccc6c5)c4)c3)ccc2c1
GI50 [1]: 1730 nM
TGI [1]: 6930 nM
GI50 [2]: 515 nM
TGI [2]: 1620 nM
GI50 [3]: 744 nM
TGI [3]: 3570 nM
GI50 [4]: 1330 nM
TGI [4]: 7710 nM
GI50 [5]: 467 nM
TGI [5]: 1170 nM
GI50 [6]: 3550 nM
TGI [6]: 25000 nM
GI50 [7]: 732 nM
TGI [7]: 2400 nM
GI50 [8]: 441 nM
TGI [8]: 833 nM
GI50 [9]: 1030 nM
TGI [9]: 3800 nM
GI50 [10]: 894 nM
TGI [10]: 4200 nM
GI50 [11]: 1090 nM
TGI [11]: 4740 nM
GI50 [12]: 848 nM
TGI [12]: 3210 nM
GI50 [13]: 1480 nM
TGI [13]: 9150 nM
GI50 [14]: 545 nM
TGI [14]: 1080 nM
GI50 [15]: 815 nM
TGI [15]: 2650 nM
GI50 [16]: 500 nM
TGI [16]: 1400 nM
GI50 [17]: 693 nM
TGI [17]: 2480 nM
GI50 [18]: 693 nM
TGI [18]: 1870 nM
GI50 [19]: 521 nM
TGI [19]: 1160 nM
GI50 [20]: 429 nM
TGI [20]: 1190 nM
GI50 [21]: 553 nM
TGI [21]: 1410 nM
GI50 [22]: 483 nM
TGI [22]: 941 nM
GI50 [23]: 835 nM
TGI [23]: 3500 nM
GI50 [24]: 469 nM
TGI [24]: 1250 nM
GI50 [25]: 512 nM
TGI [25]: 1170 nM
GI50 [26]: 866 nM
TGI [26]: 2880 nM
GI50 [27]: 682 nM
TGI [27]: 2530 nM
GI50 [28]: 508 nM
TGI [28]: 1020 nM
GI50 [29]: 984 nM
TGI [29]: 5520 nM
GI50 [30]: 722 nM
TGI [30]: 2400 nM
GI50 [31]: 814 nM
TGI [31]: 2960 nM
GI50 [32]: 470 nM
TGI [32]: 1250 nM
GI50 [33]: 8090 nM
TGI [33]: 25000 nM
GI50 [34]: 763 nM
TGI [34]: 2400 nM
GI50 [35]: 694 nM
TGI [35]: 2530 nM
GI50 [36]: 863 nM
TGI [36]: 3680 nM
GI50 [37]: 783 nM
TGI [37]: 2890 nM
GI50 [38]: 794 nM
TGI [38]: 2810 nM
GI50 [39]: 898 nM
TGI [39]: 4150 nM
GI50 [40]: 546 nM
TGI [40]: 1670 nM
GI50 [41]: 746 nM
TGI [41]: 3010 nM
GI50 [42]: 654 nM
TGI [42]: 2130 nM
GI50 [43]: 807 nM
TGI [43]: 2910 nM
GI50 [44]: 573 nM
TGI [44]: 1270 nM
GI50 [45]: 779 nM
TGI [45]: 2860 nM
GI50 [46]: 502 nM
TGI [46]: 1040 nM
GI50 [47]: 661 nM
TGI [47]: 1800 nM
GI50 [48]: 652 nM
TGI [48]: 2090 nM
GI50 [49]: 773 nM
TGI [49]: 3490 nM
GI50 [50]: 381 nM
TGI [50]: 1340 nM
GI50 [51]: 679 nM
TGI [51]: 1670 nM
GI50 [52]: 815 nM
TGI [52]: 3300 nM
GI50 [53]: 554 nM
TGI [53]: 1780 nM
GI50 [54]: 992 nM
TGI [54]: 4450 nM
GI50 [55]: 521 nM
TGI [55]: 2530 nM
GI50 [56]: 589 nM
TGI [56]: 1530 nM
GI50 [57]: 725 nM
TGI [57]: 2430 nM
GI50 [58]: 2660 nM
TGI [58]: 8740 nM

C[C@@]1(C(=O)Nc2ccc(F)nc2)CCCN1c1nc(Nc2cc(C3CC3)[nH]n2)c2cccn2n1
GI50 [1]: 855 nM and 2780 nM
TGI [1]: > 4290 nM and 17700 nM
GI50 [2]: 194 nM and 927 nM
TGI [2]: 896 nM and 3990 nM
GI50 [3]: 259 nM and 384 nM
TGI [3]: > 10000 nM and 22900 nM
GI50 [4]: 849 nM and 3360 nM
TGI [4]: > 3470 nM and 26100 nM
GI50 [5]: 832 nM and 3060 nM
TGI [5]: > 2460 nM and 14200 nM
GI50 [6]: 565 nM and 725 nM
TGI [6]: > 2290 nM and 7000 nM
GI50 [7]: 378 nM and 574 nM
TGI [7]: > 100000 nM
GI50 [8]: 9.29 nM and 50.1 nM
TGI [8]: 236 nM and 321 nM
GI50 [9]: 1030 nM and 2570 nM
TGI [9]: > 4000 nM and 16400 nM
GI50 [10]: 417 nM and 1210 nM
TGI [10]: > 4230 nM and 17100 nM
GI50 [11]: 1060 nM and 6270 nM
TGI [11]: > 4700 nM and 22700 nM
GI50 [12]: 314 nM and 575 nM
TGI [12]: > 2330 nM and 15900 nM
GI50 [13]: 826 nM and 2120 nM
TGI [13]: > 4910 nM and 36100 nM
GI50 [14]: 9.05 nM
TGI [14]: > 2060 nM
GI50 [15]: 404 nM and 1710 nM
TGI [15]: > 5170 nM and 15400 nM
GI50 [16]: 11.9 nM and < 10 nM
TGI [16]: 672 nM and 200 nM
GI50 [17]: 631 nM and 2560 nM
TGI [17]: 3190 nM and 8610 nM
GI50 [18]: 4.43 nM and 10.3 nM
TGI [18]: > 10000 nM and 1840 nM
GI50 [19]: 514 nM and 1710 nM
TGI [19]: > 3870 nM and 16500 nM
TGI [20]: > 10000 nM and 56600 nM
GI50 [21]: 53.3 nM and 125 nM
TGI [21]: 467 nM and 817 nM
GI50 [22]: 346 nM and 1100 nM
TGI [22]: > 2040 nM and 12200 nM
GI50 [23]: 624 nM and 2500 nM
TGI [23]: > 2850 nM and 20500 nM
GI50 [24]: 11700 nM
TGI [24]: > 4480 nM and 29400 nM
GI50 [25]: 44.5 nM and 30.5 nM
TGI [25]: > 2690 nM and 15200 nM
GI50 [26]: 786 nM and 3110 nM
TGI [26]: > 10000 nM and 15100 nM
TGI [27]: > 5420 nM and 23600 nM
GI50 [28]: 7880 nM
TGI [28]: > 3390 nM and 58700 nM
GI50 [29]: 248 nM and 651 nM
TGI [29]: 1900 nM and 7910 nM
GI50 [30]: 391 nM and 794 nM
TGI [30]: > 4930 nM and 19800 nM
GI50 [31]: 184 nM and 288 nM
TGI [31]: > 3070 nM and 14300 nM
GI50 [32]: 1190 nM and 4000 nM
TGI [32]: > 2540 nM and 20900 nM
GI50 [33]: 3990 nM and 4990 nM
TGI [33]: > 10000 nM and 25900 nM
GI50 [34]: 8730 nM
TGI [34]: > 3400 nM and 22300 nM
GI50 [35]: 1340 nM and 3200 nM
TGI [35]: > 3380 nM and 26700 nM
GI50 [36]: 225 nM and 455 nM
TGI [36]: > 2770 nM and 15500 nM
GI50 [37]: 1770 nM and 5990 nM
TGI [37]: > 10000 nM and 21100 nM
GI50 [38]: 989 nM and 1410 nM
TGI [38]: > 7620 nM and 23500 nM
GI50 [39]: 7860 nM
TGI [39]: > 2890 nM and 42100 nM
GI50 [40]: 396 nM and 1440 nM
TGI [40]: 1260 nM and 7110 nM
GI50 [41]: 631 nM and 2560 nM
TGI [41]: > 2570 nM and 15600 nM
GI50 [42]: 472 nM and 841 nM
TGI [42]: 3200 nM and 6780 nM
GI50 [43]: 820 nM and 2470 nM
TGI [43]: > 2450 nM and 16300 nM
GI50 [44]: 631 nM and 2640 nM
TGI [44]: > 2290 nM and 18800 nM
GI50 [45]: 11800 nM
TGI [45]: > 3920 nM and 25700 nM
GI50 [46]: 3820 nM
TGI [46]: > 2150 nM and 17500 nM
GI50 [47]: 950 nM and 6120 nM
TGI [47]: > 4910 nM and 22200 nM
GI50 [48]: 877 nM and 3550 nM
TGI [48]: > 6620 nM and 18300 nM
GI50 [49]: 12300 nM
TGI [49]: > 10000 nM and 37300 nM
GI50 [50]: 138 nM and 1240 nM
TGI [51]: > 2530 nM and 15700 nM
GI50 [52]: 214 nM and 342 nM
TGI [52]: > 10000 nM and 23400 nM
GI50 [53]: 1200 nM and 7470 nM
TGI [53]: > 3530 nM and 27200 nM
GI50 [54]: 1570 nM and 593 nM
TGI [54]: > 10000 nM and 8380 nM
GI50 [55]: 1740 nM and 4920 nM
TGI [55]: > 7390 nM and 20600 nM
GI50 [56]: 211 nM and 120 nM
TGI [56]: > 4460 nM and 16500 nM
GI50 [57]: 388 nM and 2100 nM
TGI [57]: > 2120 nM and 18700 nM
GI50 [58]: 458 nM and 2780 nM
TGI [58]: > 4380 nM and 16000 nM
